“Also recorded” adds a separate entry of the source.
What was measured:
[1] = system: HT-1080 human fibrosarcoma cell line; assay: Cytotoxicity on the cells culture HT1080; assay type: cell-based; details: TiO2 or SiO2 600 mcg/ml, cyclodextrin 5000 mcg/ml, Doxorubicin 200 mcg/ml
Method: In these studies cells (5×10^4) were seeded in 6-well plates and cultured in RPMI-1640 medium containing 10% fetal bovine serum. The cultures were incubated for 2 hours in CO2 thermostate at 37° C. After the preincubation period the medium was removed, the cells were washed with physiological saline (2×1 ml 0.9% NaCl) and exposed to testing samples applying various concentrations for 60 min. After removing the test compounds fresh RPMI 1640 medium containing 10% FBS was added and the cultures were incubated for further 24 hours at 37° C. in humidified thermostate (5% CO2). At the end of the posttreatment period the medium as supernatants of the cultures, containing released cells was removed and saved for cell counting.

human tumour cell lines = assay: Cytotoxicity and cytomorphology of test substances, conclusions (cell line not given); details: Doxorubicin 0.2 mg/ml; HPBCD 5 mg/ml
Caenorhabditis elegans = assay: Life duration of Caenorhabditis elegans on NGM plates; assay type: in vivo
Method: ADAM QD/T, TiO2 aqueous nanodispersion used for researches on the animals, was sterile nanodispersion, of pharmaceutical class, in concentration 0.6 mg/ml. • 2. […] SBECD, Sulfobutylated beta-cyclodextrin sodium salt, Budapest, Hungary DEXOLVE® pharma grade (DS 6.5), powder in concentration 0.3 mg/ml. Protocol of researches and step-by-step methodology: • embryos were isolated (synchronization) • larvae of identical phase (L4) were placed on the standard NGM (nematode growth medium) […] plates in the Petri dishes. • all the animals were in the age from first up to ninth day of life and lived in a medium containing the above-listed components, after ninth day they were placed in standard […] without other additions as FUDR. • deaths of the animals were constantly registered as a time function • the curves of life duration were created on the basis of read indications. Composition of NGM plates (all the chemical compounds and reagents of analytical class); NaCl, agar, peptone, 5 mg/ml cholesterol in ethanol, non-autoclaved, 1 M K3PO4 buffer pH 6.0 (108.3 g KH2PO4, 35.6 g K2HPO4, H2O for 1 liter), 1M MgSO4, Petri dishes, peristaltic pump. The results present average of three parallel, independent definitions, research cycles of C. elegans.

| Compound | Cytotoxicity [1] | Cytotoxicity (human tumour cell lines) | Number of living C. elegans (%) (Caenorhabditis elegans; life duration 10 days) | Number of living C. elegans (%) (Caenorhabditis elegans; life duration 13 days) | Number of living C. elegans (%) (Caenorhabditis elegans; life duration 14 days) | Number of living C. elegans (%) (Caenorhabditis elegans; life duration 15 days) | Number of living C. elegans (%) (Caenorhabditis elegans; life duration 18 days) |
| --- | --- | --- | --- | --- | --- | --- | --- |
| COc1cccc2c1C(=O)c1c(O)c3c(c(O)c1C2=O)C[C@@](O)(C(=O)CO)C[C@@H]3O[C@H]1C[C@H](N)[C@H](O)[C@H](C)O1 [Doxorubicin] | evident cytotoxicity; also recorded: significant cytotoxicity | moderate cytotoxicity | – | – | – | – | – |
| Sulfobutylated beta-cyclodextrin sodium salt [SBECD] | – | – | 90% | 41% | 20% | 7% | 0% |
